US11850334B2, “Immobilised biological entities” (CARMEDA AB, priority 2018, dated 2023)

Test system: FXa
Experiment: Anti-FXa activity of heparin fragments in solution, compared with International Standard (Evaluation Method C)
Type: biochemical
Settings: not immobilized, calculated towards Low Molecular Heparin 2nd International Standard
Experimental: Evaluation Method C: Anti-FXa Activity Determination of Heparin Fragments in Solution, Compared with International Standard
The anticoagulant activity of the heparin fragments are determined in an anti-FXa assay. This method measures anti-FXa activity of heparin essentially according to USP<208> Anti-FXa and Anti-FIIa assays for unfractionated and low molecular weight heparins. The method is based on heparin's ability to accelerate antithrombin inhibition of FXa in vitro, where the residual FXa activity is detected using a chromogenic FXa substrate (CS 11(65)). The results expressed as IU/mg (international unit/mg) are calculated using the parallel-line model, towards the Low Molecular Heparin 2nd International Standard.
Anti-FXa activity was determined by Evaluation Method Con example 1.2 (alpha), 1.1 (beta), 2.1, 2.2 and 2.3 (see Table 3). All heparin fragments tested were in solution and not immobilized to a surface.

5-Aminopentyl 2-deoxy-2-sulfamido-6-O-sulfo-α-D-glucopyranosyl-(1→4)-β-D-glucopyranosyluronic acid-(1→4)-2-deoxy-2-sulfamido-3,6-di-O-sulfo-α-D-glucopyranosyl-(1→4)-2-O-sulfo-α-L-idopyranosyluronic acid-(1→4)-2-deoxy-2-sulfamido-6-O-sulfo-β-D-glucopyranoside [Example 1.1]
anti-FXa activity: 385 IU/mg

NCCCCCO[C@H]1O[C@H](COS(=O)(=O)O)[C@@H](O[C@@H]2O[C@@H](C(=O)O)[C@@H](O[C@H]3O[C@H](COS(=O)(=O)O)[C@@H](O[C@@H]4O[C@H](C(=O)O)[C@@H](O[C@H]5O[C@H](COS(=O)(=O)O)[C@@H](O)[C@H](O)[C@H]5NS(=O)(=O)O)[C@H](O)[C@H]4O)[C@H](OS(=O)(=O)O)[C@H]3NS(=O)(=O)O)[C@H](O)[C@H]2OS(=O)(=O)O)[C@H](O)[C@H]1NS(=O)(=O)O [Example 1.2, 5-Aminopentyl 2-deoxy-2-sulfamido-6-O-sulfo-α-D-glucopyranosyl-(1→4)-β-D-glucopyranosyluronic acid-(1→4)-2-deoxy-2-sulfamido-3,6-di-O-sulfo-α-D-glucopyranosyl-(1→4)-2-O-sulfo-α-L-idopyranosyluronic acid-(1→4)-2-deoxy-2-sulfamido-6-O-sulfo-α-D-glucopyranoside]
anti-FXa activity: 330 IU/mg
